Reference: patent US20250221957A1, “PS[…] AND THEIR USE FOR TREATING […] AND NE[…] DISORDERS” (Transcend Therapeutics, Inc., priority 2021, published 2025)
Like-named read-outs stand apart in the source and are kept apart here.

Key:
Sprague Dawley rats [1] = assay: Forced Swim Test (FST); assay type: in vivo, rat; conditions: for reduction in immobility (magnitude of the effect): single dose 30 min before testing
Excerpt: The Forced Swim Test (FST) is a classic, and the most used preclinical behavioral assay to screen compounds with antidepressant-like activity and has high predictive and face validity (Porsolt et al. (1977) Nature 266:730; Borsini and Meli (1988) Psychopharmacology 94:147). The premise of the FST is that when rats are placed into a cylinder filled with water, they will initially try to escape, but over time will become immobile. This increased immobility reflects behavioral despair, modeling a depressive-like state.
Animals: Male Sprague Dawley rats (Charles River Laboratories) weighing 180-200 g on arrival, were used for this study which took place at Melior Discovery (Exton, PA). Rats acclimated to their home cages for at least one week before testing, were maintained in a controlled environment on a 12 h light/dark cycle, with no more than 2 rats per cage. Animals received ad libitum access to food and water and were assigned randomly to treatment groups. Animal use and procedures were in accordance with established protocols approved by the IACUC committee, Melior Standard Operation Procedures (SOP), and Transcend Therapeutics.
Forced Swim Test (FST): In the FST trial, rats were be placed in a circular plexiglass container filled with water, with no means of escape. Water temperature was maintained at 22-25° C. and changed for every animal. After an acclimation period, rats were timed for inactivity (failure to struggle), activity, swim time and climbing time. Day 1 consisted of a 15 min acclimation trial, and Day 2 (24 h later) consisted of the 5 min test. A time sampling procedure was employed where animals were observed every 5 sec and scored for immobility, swimming, or climbing. Fluoxetine (10 mg/kg, IP, Sigma Aldrich) or 0.9% sterile saline vehicle (vehicle 3× group) were administered 23.5, 5, and 1 h before testing in the FST. […] The experimenter was blinded to treatment.
Statistical Analysis: Data for each parameter of the test (immobility, swimming, or climbing) is expressed as the mean±SEM. Differences between groups were determined by one-way ANOVA and post-hoc Tukey's test with a p-value of less than 0.05 indicating statistically significant differences.
Forced Swim Test: In the FST trial, rats were be placed in a circular plexiglass container filled with water, with no means of escape. Water temperature was maintained at 22-25° C. and changed for every animal. After an acclimation period, rats were timed for inactivity (failure to struggle), activity, swim time and climbing time. Day 1 consisted of a 15 min acclimation trial, and Day 2 (24 h later) consisted of the 5 min test. A time sampling procedure was employed where animals were observed every 5 sec and scored for immobility, swimming, or climbing. Fluoxetine (10 mg/kg, IP, Sigma Aldrich) or 0.9% sterile saline vehicle (vehicle 3× group) were administered 23.5, 5, and 1 h before testing in the FST. 2C-B (2.5, 10, or 20 mg/kg, IP, Cayman Chemical) or 0.9% saline vehicle (vehicle 1× group) were administered 30 min prior to FST testing. The experimenter was blinded to treatment.
Drug Treatment: Fluoxetine (10 mg/kg, IP, Sigma Aldrich) or 0.9% sterile saline vehicle were administered 23.5, 5, and 1 h before testing in the FST. […] Control animals received fluoxetine alone, methylone alone, or saline vehicle.
Forced Swim Test: In the FST trial, rats were be placed in a circular plexiglass container filled with water, with no means of escape. Water temperature was maintained at 22-25° C. and changed for every animal. After an acclimation period, rats were timed for inactivity (failure to struggle), activity, swim time and climbing time. The experimenter and scorer were blind to treatment group. Day 1 consisted of a 15 min acclimation trial, and Day 2 (24 h later) consisted of the 5 min test. A time sampling procedure was employed where animals were observed every 5 sec and scored for immobility, swimming, or climbing. […]

mice [2] = assay: Fear extinction paradigm, mouse model of PTSD; assay type: in vivo; conditions: MBDB 5 mg/kg IP, day 2
Excerpt: (FIG. 9A) Schematic of experimental design. A single CS-US (tone-shock) pairing on day 1 was followed by 6 CS presentations in a novel context (context B). […] On day 3, the time spent freezing to the CS was quantified. […] (FIG. 9C) No locomotor changes were observed on day 3 (t(26)=1.073, p>0.05). Data are mean +/− SEM.
FIGS. 10A-10B: MBDB improves fear extinction in a mouse model of PTSD. A single CS-US (tone-shock) pairing on day 1 was followed by 6 conditioned stimulus (CS) presentations in a novel context (context B). MBDB or saline vehicle was injected 30 min prior to extinction training on day 2. The time spent freezing to the CS was quantified on […]. […] Data are mean +/− SEM. N=10 for MBDB group (5 mg/kg, IP) and N=16 for saline control group. **p<0.01 vs. vehicle control group.
Effective PTSD treatments facilitate the disassociation between a traumatic memory and the patient's fear response, making cues for the traumatic memory evoke less of a fear response. This is modeled in the mouse fear extinction paradigm (see FIG. 9A) which takes place over 3 days. On day 1 (fear conditioning), mice are trained to acquire a “traumatic memory,” namely associating the conditioned stimulus (CS, tone) to the unconditioned stimulus (US, foot shock). On day 2 (extinction training), they are trained to forget the traumatic memory association by presenting the CS 6 times (with no US) in a novel environment. On day 3 (extinction recall), the mice are “asked” if that tone (CS) still elicits a fearful response, as measured by the time spent freezing when the tone is presented. Less time freezing means better extinction recall. Drugs that improve extinction recall reduce freezing time on day 3, and, therefore, show potential as a PTSD treatment.

[3] = tested on: serotonergic terminals in the cortex and hippocampus; conditions: 25 mg/kg IP every 12 hours for 4 days; 2 weeks post-treatment; cited from earlier work
drug users / humans = conditions: cited from earlier work
Sprague Dawley rats [4] = conditions: cited from earlier work
[5] = target: T1, Human serotonin 5HT2B receptor (Homo sapiens, UniProt P41595); assay: Competitive radioligand binding to 5HT2B receptor membrane preparations; conditions: ratio of Ki values
T1 construct: host or cells: 5HT2B receptor expressing membranes
Protocol: Human serotonin 5HT2B receptor membrane preparations were divided into aliquots. On the day of the assay, membranes were diluted at 1:200 in incubation buffer. […] To each well was added 150 μL membrane preparation, 50 μL test compound, non-specific compound, or buffer alone, as well as 50 μL radioligand. The plate was incubated at 35° C. for 90 minutes with gentle agitation. […] For each concentration of drug, non-specific binding was subtracted from total binding to give specific binding. […] Ki was subsequently calculated using the ChengPrusoff equation.

[6] = target: T1, Human serotonin 5HT2B receptor; conditions: literature values; read-out: reported Ki; cited from earlier work
mice [7] = conditions: MDMA 7.5 mg/kg 30 minutes prior to extinction training (Young 2015); cited from earlier work
[8] = depending on the animal model used and dosing conditions; cited from earlier work
[9] = 13 of 77 deaths, meta-analysis; cited from earlier work

T1 sequence (P41595 whole entry): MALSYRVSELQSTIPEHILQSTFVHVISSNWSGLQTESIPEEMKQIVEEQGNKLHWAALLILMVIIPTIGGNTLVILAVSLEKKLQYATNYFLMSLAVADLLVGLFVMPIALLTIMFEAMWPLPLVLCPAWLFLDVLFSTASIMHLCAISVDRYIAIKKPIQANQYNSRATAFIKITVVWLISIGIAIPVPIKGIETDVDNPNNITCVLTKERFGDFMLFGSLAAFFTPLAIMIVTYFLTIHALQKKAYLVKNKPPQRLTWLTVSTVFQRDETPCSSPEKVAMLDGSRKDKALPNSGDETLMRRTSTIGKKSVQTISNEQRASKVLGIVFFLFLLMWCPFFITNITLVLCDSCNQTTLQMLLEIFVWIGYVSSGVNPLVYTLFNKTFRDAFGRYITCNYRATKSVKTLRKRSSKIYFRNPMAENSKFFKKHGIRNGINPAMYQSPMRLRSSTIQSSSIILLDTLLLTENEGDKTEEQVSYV

CCC(Cc1ccc2c(c1)OCO2)NC (racemic) [MBDB, N-methyl-1-(1,3-benzodioxol-5-yl)-2-aminobutane]
climbing (Sprague Dawley rats [1]; MBDB IP 30 min before testing): significantly reduced only at the highest dose
swimming (Sprague Dawley rats [1]; MBDB IP 30 min before testing): robustly increased at all doses tested
immobility (Sprague Dawley rats [1]; MBDB IP 30 min before testing, all doses tested (15-30 mg/kg)): significantly reduced immobility
extinction acquisition on the first trial of extinction training (mice [2]): improved extinction acquisition
locomotor activity (mice [2]): small, but significant increase
serotonergic terminals destroyed in the cortex and hippocampus [3]: 55-60%
adverse effects (drug users / humans; self-administered MBDB under supervision, 100 to 300 mg): no serious adverse effects

COc1cc(CCN)c(OC)cc1Br [2C-B, 4-Bromo-2,5-dimethoxyphenethylamine]
climbing (Sprague Dawley rats [1]; 2C-B 2.5, 10, 20 mg/kg IP): significantly decreased only in the high-dose group
reduction in immobility (magnitude of the effect) (Sprague Dawley rats [1]; 2C-B high-dose (20 mg/kg IP)): 53%
reduction in immobility (magnitude of the effect) (Sprague Dawley rats [1]; 2C-B mid-dose (10 mg/kg IP)): 50%
swimming (Sprague Dawley rats [1]; single dose of 2C-B 30 minutes before testing): significant increase in swimming
adverse effects (drug users / humans; self-administered 2C-B, 10 to 20 mg, experienced drug users): no serious adverse effects

CCN(CC)C(=O)[C@@H]1C=C2c3cccc4[nH]cc(c34)C[C@H]2N(C)C1 [LSD, lysergic acid-N,N-diethylamide]
reduction in immobility in the FST, previous reports (Sprague Dawley rats [4]; literature (Hibicke 2020; Yang 2013; Tizabi 2012)): 38%

CC(N)Cc1ccc2c(c1)OCO2 (centres unmarked) [MDA]
greater affinity for the 5HT2B receptor compared with methylone [5]: 37 times
Ki [6]: 100 nM

CNC(C)Cc1ccc2c(c1)OCO2 (centres unmarked) [MDMA, 3,4-Methylenedioxymethamphetamine]
greater affinity for the 5HT2B receptor compared with methylone [5]: 7.5 times
reduction in immobility, reported (Sprague Dawley rats [4]; MDMA 5 mg/kg, Flinders Sensitive Line rats (Majumder 2011)): 45%
reduction in immobility, reported (Sprague Dawley rats [4]; MDMA 5 mg/kg, Sprague Dawley rats (Majumder 2011)): 45%
reduction in immobility, reported (Sprague Dawley rats [4]; MDMA 10 mg/kg, Flinders Sensitive Line rats (Majumder 2011)): 93%
reduction in immobility, reported (Sprague Dawley rats [4]; MDMA 10 mg/kg, Sprague Dawley rats (Majumder 2011)): 78%
reduced freezing compared to saline injected controls (extinction recall) (mice [7]): 35%
half-life [8]: 5 to 7 h
blood concentration in deaths attributable to MDMA alone [9]: 478 to 53900 ng/mL

CNCCC(Oc1ccc(C(F)(F)F)cc1)c1ccccc1 (centres unmarked) [fluoxetine, reference compound]
swimming behavior (Sprague Dawley rats [1]; Example 8): significantly increased swimming behavior
reduction in immobility (Sprague Dawley rats [1]; fluoxetine 10 mg/kg IP at 23.5, 5 and 1 h before testing (Examples 6 and 7)): 56%
reduced immobility compared to vehicle (Sprague Dawley rats [1]; fluoxetine alone, 10 mg/kg IP x3 (Example 8)): 60%
